Tests used:
NHEK cells [1] = experiment: Proliferation of NHEK cells irradiated with ultraviolet rays, fluorescent intensity (Experiment 17); format: cell-based, human; settings: stimulation by ultraviolet rays
Procedure: (§1) “CELLMATRIX TYPE IV”, a product name of collagen for tissue culture commercialized by Nitta Gelatin Inc., Osaka, Japan, which had been diluted with PBS(K-) by 10 times, was previously placed in “FALCON 35-3001”, a product name of 35 mm petri dish commercialized by Becton Dickinson and Company, NJ, USA, in an amount of 1 mL/plate, and then allowed to stand at ambient temperature for 10 min, followed by removing an excessive amount of CELLMATRIX, drying the petri dish in air, and washing it thrice with PBS(K-). […] The cells were cultured at 37° C. in a 5% v/v CO2 incubator. On the 2nd and 4th days after the cell inoculation, the medium was replaced with EpiLife medium free of EDGS (1 mL/plate). On the 5th day after the cell inoculation, the supernatant was removed, and the petri dish was washed twice by adding 1 mL/petri dish of Hanks' balanced salt solution (called “HBSS (−) buffer”, hereinafter). Further, 2 mL/petri dish of HBSS (−) buffer was added to the petri dish which was then placed in the position 15 cm apart from an ultraviolet ray light source and irradiated with 40 mJ/cm^2 of ultraviolet B radiation. […] As an ultraviolet ray light source, “NS-8F”, a light source for actual use commercialized by Sanwa Medical Co., Ltd., Okayama, Japan, equipped with an ultraviolet B radiation lamp was used, and the radiation dose was measured on “UVR-305/365D (II)”, an ultraviolet ray meter commercialized by Topcon Corporation, Tokyo, Japan. TNF-α was assayed by the same method as in Experiment 2. The remaining other cytokines were assayed with an IL-1α assay kit, commercialized by R & D Systems Inc., MN, USA, and an IL-8 assay kit commercialized by BioLegend, CA, USA.

[2] = test system: IL-12 production from mouse intraperitoneal macrophages; experiment: IC50 for IL-12 production from mouse macrophages, LPS + IFN-γ (Experiment 19); format: cell-based; settings: Mus musculus, Macrophage, 20 h, read-out: IC50 Concentration IL-12
From the text: (§2) After completion of the culture, the supernatant in each well was collected and assayed for cytokines and prostaglandin E2 (called “PGE2”, hereinafter) with ELISA.

[3] = test system: IL-8 production from NHEK cells; experiment: IL-8 production from NHEK cells irradiated with ultraviolet B (Experiment 17); format: cell-based, human; settings: for IL-8: NHEK cells, stimulation by ultraviolet rays
Procedure: as §1

NHEK cells [4] = experiment: Cytotoxicity (released LDH) of NHEK cells irradiated with ultraviolet B (Experiment 17); format: cell-based, human; settings: NHEK cells, stimulation by ultraviolet rays
[5] = test system: TNF-α production from NHEK cells; experiment: TNF-α production from NHEK cells irradiated with ultraviolet B (Experiment 17); format: cell-based, human; settings: for TNF-α: NHEK cells, stimulation by ultraviolet rays
Procedure: as §1

[6] = test system: IL-4 production of spleen cells; experiment: IL-4 production of spleen cells stimulated with anti-CD3 antibody, from gel-treated mice (Experiment 16); format: in vivo, NC/Nga mice
Procedure: On Friday of the 6th week of the induction (46th day after initiating the application), all the mice were sacrificed, followed by isolating their spleens and collecting spleen cells in usual manner. […] To each well 2 μg/mL of “Purified Mouse CD3ε Monoclonal Antibody”, a product name of an anti-CD3 antibody, commercialized by Cosmo Bio Co., Ltd., Tokyo, Japan, was added, and the cells were incubated at 37° C. for three days in a 5% v/v CO2 incubator, followed by assaying the levels of cytokines in each supernatant thereof.
The results are in Table 19 in parallel.

[7] = test system: mice with colitis induced by dextran sulfate sodium; experiment: Dextran sulfate sodium colitis mice: diarrhea/hematochezia scores, DAI, haptoglobin (Experiment 13); format: in vivo, C57BL/6 mice; settings: dextran sulfate sodium intake, 94 mg/kg orally once a day
Procedure: Dextran sulfate sodium (commercialized by MP Biomedicals, CA, USA, molecular weight of 36,000 to 50,000) was dissolved in tap water, and all the mice of these five groups consisting of eight heads each were allowed to freely take the solution for five days (Experiment groups 2 to 5). […] The eight mice of the remaining one group were administered through a gastric tube with PBS once a day at a dose of 0.2 mL/head over 11 days from the day of initiating the administration of dextran sulfate sodium (Experiment group 2). The five mice of one group, which had not been administered with dextran sulfate sodium, were bred for 11 days on the normal feed while allowing them to take tap water freely (Experiment group 1).
The mice were weighed and their degree of diarrhea and hematochezia were macroscopically observed every day over 11 days from the day of initiating the intake of dextran sulfate sodium. The body weight reduction percentage (%) was determined by dividing the body weight of a mouse at 11th day after initiating the intake of dextran sulfate sodium by the body weight of the mouse at the day of initiating the intake, and multiplying the value by 100, and subtracting the resulting value from 100. The scores of diarrhea and hematochezia and the body weight reduction percentage (%) in each mouse were scored according to the criteria as shown in Table 13. For each group, the average of the total scores of diarrhea and hematochezia on days ranging from the day (intake day 0) of initiating the intake of dextran sulfate sodium to 11th day therefrom (intake day 10) are determined and shown in Table 14. The total scores of diarrhea, hematochezia, and body weight reduction percentage for each mouse at 11th day (intake day 10) after initiating the intake of dextran sulfate sodium are calculated for disease activity index (DAI) used as an index for colitis, averaged for each group, and shown in Table 14. On 11th day after initiating the intake of dextran sulfate sodium, each mouse was collected blood, followed by assaying haptoglobin or an acute phase protein, as an index for inflammatory, on an ELISA kit commercialized by Life Diagnostics USA, and averaging the data for each group. The results are in Table 14 in parallel. Since one mouse in Experiment group 2 administered with only dextran sulfate sodium was dead at 11th day after initiating the intake of dextran sulfate sodium, the results of Experiment group 2 at 11th day (intake day 10) after initiating the intake of dextran sulfate sodium represent the average of seven mice.

[8] = test system: TNF-α production from mouse intraperitoneal macrophages; experiment: IC50 for TNF-α production from mouse macrophages, LPS + IFN-γ, nucleic acid derivatives (Experiment 19); format: cell-based; settings: Mus musculus, Macrophage, 20 h, read-out: IC50 Concentration TNF-α
From the text: as §2

[9] = UVB 40 mJ/cm^2, supernatant at six hours

## OC[C@H]1O[C@@H](n2cnc3c(O)ncnc32)[C@H](O)[C@@H]1O [IN, inosine]
NHEK cells [1]; 1 μM
  Proliferation: 5643 Fluorescent intensity
NHEK cells [1]; 5 μM
  Proliferation: 5611 Fluorescent intensity
NHEK cells [1]; 10 μM
  Proliferation: 5633 Fluorescent intensity
[2]
  IC50: > 200 µM
[3]; 1 μM
  IL-8: 166 pg/mL
[3]; 5 μM
  IL-8: 169 pg/mL
[3]; 10 μM
  IL-8: 140 pg/mL
[3]; [9]
  production of IL-8 from NHEK cells induced by ultraviolet rays: did not influence
NHEK cells [4]; 1 μM
  LDH Activity: 0.34 absorbance
NHEK cells [4]; 5 μM
  LDH Activity: 0.34 absorbance
NHEK cells [4]; 10 μM
  LDH Activity: 0.32 absorbance
[5]; 1 μM
  TNF-α: 141 pg/mL
[5]; 5 μM
  TNF-α: 142 pg/mL
[5]; 10 μM
  TNF-α: 128 pg/mL
[5]; [9]
  production of TNF-α from NHEK cells induced by ultraviolet rays: did not influence
[6]; compared to mice applied with gel prepared by adding refined water (Experiment group 1)
  production level of IL-4 of spleen cells stimulated with the anti-CD3 antibody: showed no difference
[6]; spleen cells stimulated with anti-CD3 antibody, picryl chloride-sensitized mice applied with gel
  Ratio of IL-4/IFN-γ: 0.70
[6]; supernatant of spleen cells stimulated with anti-CD3 antibody, picryl chloride-sensitized mice applied with gel
  Content of IL-4: 9.3 ng/mL
[7]; blood on 11th day
  Content of haptoglobin: 3.9 mg/mL
[7]; day 0
  Total scores of diarrhea and hematochezia, day 0: 0
[7]; day 1
  Total scores of diarrhea and hematochezia, day 1: 0
[7]; day 2
  Total scores of diarrhea and hematochezia, day 2: 0
[7]; day 3
  Total scores of diarrhea and hematochezia, day 3: 0.1
[7]; day 4
  Total scores of diarrhea and hematochezia, day 4: 0.8
[7]; day 5
  Total scores of diarrhea and hematochezia, day 5: 1.1
[7]; day 6
  Total scores of diarrhea and hematochezia, day 6: 1.2
[7]; day 7
  Total scores of diarrhea and hematochezia, day 7: 1.1
[7]; day 8
  Total scores of diarrhea and hematochezia, day 8: 1.2
[7]; day 9
  Total scores of diarrhea and hematochezia, day 9: 1.2
[7]; day 10
  DAI (total scores of diarrhea, hematochezia, and body weight reduction percentage), day 10: 4.1
  Total scores of diarrhea and hematochezia, day 10: 1.3
[8]
  IC50: > 200 µM
